The test system of test [1] is Cryptococcus neoformans. Description: Antifungal activity against Cryptococcus neoformans H99 expressing PCTR4-2/FAS1 assessed as logarithmic reduction in viable cells at 8 ug/ml in presence of bathocuproinedisulfonic acid. The class given is functional.
Test [2] concerns Cryptococcus neoformans. The test is described as follows: Antifungal activity against Cryptococcus neoformans H99 expressing PCTR4-2/FAS2 assessed as logarithmic reduction in viable cells at 8 ug/ml in presence of bathocuproinedisulfonic acid. The class given is functional.
For test [3], the system named is Cryptococcus neoformans. Description: Antifungal activity against Cryptococcus neoformans H99 expressing PCTR4-2/FAS1 assessed as reduction in viable cells at 8 ug/ml after 72 hrs in presence of CuSO4 relative to CuSO4 alone. The class given is functional.
The subject of test [4] is Cryptococcus neoformans. The test is described as follows: Fungicidal activity against Cryptococcus neoformans H99 expressing PCTR4-2/FAS2 after 72 hrs in presence of CuSO4. The class given is functional, organism-based.

We go through 1 compound from ChEMBL document CHEMBL1152826, “Fatty acid synthesis is essential for survival of Cryptococcus neoformans and a potential fungicidal target” (2007).

The source made the active and inactive calls. No cut-off for these calls is given here.

On to `OC(Cn1cncn1)(Cn1cncn1)c1ccc(F)cc1F` [FLUCONAZOLE], for which the Activity in test [1] and in test [2] was 0.5 each time. Besides, in test [3], the “fold change (FC)” value is 100. Further, in test [4], the result was Active.
